Measurements taken from paper PMC10776879, “In vitro screening of topical formulation excipients for epithelial toxicity in cancerous and non-cancerous cell lines” (EXCLI Journal, 2023).
“Also recorded” adds a separate entry of the source.

Assays:
[1] = system: WM1366 human melanoma cells; experiment: Crystal violet (CV) cell viability assay; assay type: cell-based; details: 24 h exposure
Protocol: (§1) Cells were seeded into the 96-well cell culture plates in 100 μl of complete culture medium at the initial density of 2x10^4 (cells/ml). Cells were incubated under 5 % CO2 at 37 °C for 24 hours for adhering to the wells and medium was then replaced with 100 μl of fresh medium containing excipient solution at the required final concentration. Each concentration was tested in minimum of 5 replicates and control cells were exposed to the culture medium only. Fixed cells were stained with crystal violet dye solution to screen cell viability under treatment conditions. Cells are fixed by 4 % (v/v) paraformaldehyde in PBS for 10 minutes. Crystal violet assay of 0.05 % (v/v) is prepared by 1:4 dilution of the crystal violet stock solution (v/v) in 4 % (v/v) paraformaldehyde. The fixed cells were washed twice with PBS and covered with 250 µl crystal violet working solution. The plates were placed on a bench rocker with medium frequency (20 oscillations per minute) at room temperature for 20 minutes. The plates were emptied and washed under indirect stream of tap water for three times and inverted on filter paper. The plates were taped gently on the paper to remove any remaining liquid and air dried with no lid for minimum of 2 hr at room temperature. After the plates were photographed, blue dye was dissolved in DMSO and the optical density of each well was measured at 570 nm (OD570) with a plate reader (Multiskan™ FC Microplate Photometer). The effect of each treatment was calculated as the percentage of crystal viable staining of surviving attached cells, against the negative control (cells treated with culture medium only). To assess the excipients' cytotoxicity, the dose-response effect of each excipient was measured against the cell lines. The cytotoxicity value for each concentration of the excipients was expressed as percentage of viability against the untreated control wells (the optical density of untreated cells was set at 100 % viability) to construct dose-response curves. […] All IC50 values were expressed as µg/ml. The percentage viability was calculated as follows: […]

[2] = system: HaCaT human keratinocytes; experiment: Crystal violet (CV) cell viability assay; assay type: cell-based; details: 24 h exposure
Protocol: as §1

[3] = system: WM164 human melanoma cells; experiment: Crystal violet (CV) cell viability assay; assay type: cell-based; details: 24 h exposure
Protocol: as §1

D24 human melanoma cells [4] = experiment: Crystal violet (CV) cell viability assay; assay type: cell-based; details: 24 h exposure
Protocol: as §1

[5] = system: human cell lines (WM164, WM1366, D24, HaCaT, FB); experiment: MTT and CV cytotoxicity, statements over all tested cell lines; assay type: cell-based; details: for Irritancy ranking: rank by MTT and CV IC50 over all cell lines, 1 = most cytotoxic
Protocol: (§2) Cells were seeded into the 96-well cell culture plates in 100 μl of complete culture medium at the initial density of 2x10^4 (cells/ml). Cells were incubated under 5 % CO2 at 37 °C for 24 hours for adhering to the wells and medium was then replaced with 100 μl of fresh medium containing excipient solution at the required final concentration. Each concentration was tested in minimum of 5 replicates and control cells were exposed to the culture medium only.
(§3) After cell incubation for 24 h, the excipient-containing medium was removed, and 100 μl of MTT in PBS (5 mg/ml) diluted 1:10 in medium was then added in the dark. Plates were further incubated for 2-3 h, after which time the medium was removed and the purple formazan product was dissolved by adding 200 μl of DMSO to each well. Plates were then placed in a shaker for 5 min at room temperature and the absorbance of the resulting solutions was measured at 570 nm using a microplate reader (Multiskan™ FC Microplate Photometer). The effect of each treatment was calculated as the percentage of tetrazolium salt reduction by viable cells against the negative control (cells treated with culture medium only).
Fixed cells were stained with crystal violet dye solution to screen cell viability under treatment conditions. Cells are fixed by 4 % (v/v) paraformaldehyde in PBS for 10 minutes. Crystal violet assay of 0.05 % (v/v) is prepared by 1:4 dilution of the crystal violet stock solution (v/v) in 4 % (v/v) paraformaldehyde. The fixed cells were washed twice with PBS and covered with 250 µl crystal violet working solution. The plates were placed on a bench rocker with medium frequency (20 oscillations per minute) at room temperature for 20 minutes. The plates were emptied and washed under indirect stream of tap water for three times and inverted on filter paper. The plates were taped gently on the paper to remove any remaining liquid and air dried with no lid for minimum of 2 hr at room temperature. After the plates were photographed, blue dye was dissolved in DMSO and the optical density of each well was measured at 570 nm (OD570) with a plate reader (Multiskan™ FC Microplate Photometer). The effect of each treatment was calculated as the percentage of crystal viable staining of surviving attached cells, against the negative control (cells treated with culture medium only).
(§4) To assess the excipients' cytotoxicity, the dose-response effect of each excipient was measured against the cell lines. The cytotoxicity value for each concentration of the excipients was expressed as percentage of viability against the untreated control wells (the optical density of untreated cells was set at 100 % viability) to construct dose-response curves.
The cytotoxicity of the excipients was expressed in terms of an IC50 values (concentration causing 50 % death of the cell population) (Goldberg and Frazier, 1989[37]). […] All IC50 values were expressed as µg/ml. The percentage viability was calculated as follows: […]

[6] = system: primary skin fibroblasts (FB); experiment: MTT cell viability assay; assay type: cell-based, human; details: 24 h exposure
Protocol: as §2, §3, §4
(§5) All IC50 values were expressed as µg/ml. The percentage viability was calculated as follows: […]

[7] = system: WM1366 human melanoma cells; experiment: MTT cell viability assay; assay type: cell-based; details: 24 h exposure
Protocol: as §2, §3, §4, §5

[8] = system: HaCaT human keratinocytes; experiment: MTT cell viability assay; assay type: cell-based; details: 24 h exposure
Protocol: as §2, §3, §4, §5

[9] = system: WM164 human melanoma cells; experiment: MTT cell viability assay; assay type: cell-based; details: 24 h exposure
Protocol: as §2, §3, §4, §5

D24 human melanoma cells [10] = experiment: MTT cell viability assay; assay type: cell-based; details: 24 h exposure
Protocol: as §2, §3, §4, §5

[11] = system: primary skin fibroblasts (FB); experiment: Crystal violet (CV) cell viability assay; assay type: cell-based, human; details: 24 h exposure
Protocol: as §1

[12] = Table 1, physicochemical information of the excipients, source not given; cited from earlier work
[13] = system: human leukemic cells (CCRF); parameters: method as in Duncan et al., 1994[25]; details: ref Duncan et al., 1994[25]; cited from earlier work

| Substance | IC50 (μg/ml) [Mean, Range] WM1366, CV [1] | IC50 (μg/ml) [Mean, Range] HaCaT, CV [2] | IC50 (μg/ml) [Mean, Range] WM164, CV [3] | IC50 (μg/ml) [Mean, Range] D24, CV (D24 human melanoma cells [4]) | Cytotoxicity (result in words) ([5]; all cell lines, at the applied concentrations, 24 h) | Irritancy ranking [5] | IC50 (μg/ml) [Mean, Range] FB, MTT [6] | IC50 (μg/ml) [Mean, Range] WM1366, MTT [7] | IC50 (μg/ml) [Mean, Range] HaCaT, MTT [8] | IC50 (μg/ml) [Mean, Range] WM164, MTT [9] | IC50 (μg/ml) [Mean, Range] D24, MTT (D24 human melanoma cells [10]) | IC50 (μg/ml) [Mean, Range] FB, CV [11] | Concentration causing significant inhibition of cell growth ([5]; all cell lines) [µg/mL] | IC50 ([5]; over the tested cell lines, this study) [µg/mL] | HLB [12] | IC50, MTT assay [13] [µg/mL] |
| --- | --- | --- | --- | --- | --- | --- | --- | --- | --- | --- | --- | --- | --- | --- | --- | --- |
| Propylene glycol dicaprylocaprate [Labrafac®] | > Max Conc. | > Max Conc. | > Max Conc. | > Max Conc. | non-toxic; also recorded: did not induce any reduction in cell viability; also recorded: caused no toxicity to any cell lines; also recorded: No damaging effects on cell growth | 5 | > Max Conc. | > Max Conc. | > Max Conc. | > Max Conc. | > Max Conc. | > Max Conc. |  |  |  |  |
| Triton X-100 [reference compound] | 0.089 µg/mL | 0.044 (0.042 to 0.047) μg/ml | 0.0265 µg/mL | 0.043 (0.04 to 0.045) μg/ml |  | 1 | 0.1034 (0.08 to 0.16) μg/ml | 0.083 µg/mL | 0.0417 (0.04 to 0.043) μg/ml | 0.0042 (0.002 to 0.01) μg/ml | 0.0429 (0.04 to 0.05) μg/ml | 0.094 (0.08 to 0.13) μg/ml | 0.004 | < 0.08 | 13.5 | 1 |
